In data set [1] the target is Transient receptor potential cation channel subfamily M member 2 (Homo sapiens, UniProt O94759). Briefly: Inhibition of TRPM2 channel (unknown origin) in doxycycline-inducible human HEK-293T cells assessed as inhibition of ADPR activated current by measuring inhibition rate at +80 mV to -80 mV at 1 uM by whole-cell patch clamp electrophysiology relative to control. Type of data set: cell-based.

The subject of data set [2] is Mus musculus. Nature of the data set: Neuroprotective effect against transient middle cerebral artery occlusion (tMCAO) mouse model assessed as infarct volume in TTC-stained brain slices at 3 mg/kg, iv administered 3 hrs after reperfusion (reference value: 59 +/- 2.4%). The data set is classed as functional.
Data set [3] deals with Mus musculus. Nature of the data set: Neuroprotective effect against transient middle cerebral artery occlusion (tMCAO) mouse model assessed as infarct volume in TTC-stained brain slices at 3 mg/kg, iv administered 24 hrs after reperfusion (reference value: 4.3 +/- 0.3%). The data set is classed as functional.
In data set [4] the test system is Mus musculus. Briefly: Neuroprotective effect against transient middle cerebral artery occlusion (tMCAO) mouse model assessed as infarct volume in TTC-stained brain slices at 1 mg/kg, iv administered 24 hrs after reperfusion (reference value: 4.3 +/- 0.3%). The data set is classed as functional.
Data set [5] relates to Mus musculus. Nature of the data set: Neuroprotective effect against transient middle cerebral artery occlusion (tMCAO) (60 mins ischemia/24 hrs reperfusion) mouse model assessed as infarct volume in TTC-stained brain slices at 3 mg/kg, iv once daily for 7 days (reference value: 39.6 +/- 1.3%). Type of data set: functional. The following applies: 1 h.
A short description of data set [6]: Tmax in mouse at 1 mg/kg, iv administered single dose. The following applies: in vivo. Type of data set: ADME, organism-based.
Data set [7] is described as follows: Half life in mouse at 1 mg/kg, iv administered single dose. The data set is classed as ADME, organism-based. The following applies: in vivo.
Data set [8] can be described thus: Cmax in mouse at 1 mg/kg, iv administered single dose. Type of data set: ADME, organism-based. The conditions noted are these: in vivo.
The nature of data set [9]: AUC (0 to t) in mouse at 1 mg/kg, iv administered single dose. Type of data set: ADME, organism-based. The following applies: in vivo.
A short description of data set [10]: AUC (0 to infinitive) in mouse at 1 mg/kg, iv administered single dose. Type of data set: ADME, organism-based. The conditions noted are these: in vivo.
Data set [11] in a line: Clearance in mouse at 1 mg/kg, iv administered single dose. The data set is classed as ADME, organism-based. The conditions noted are these: in vivo.
Data set [12] is described as follows: MRT in mouse at 1 mg/kg, iv administered single dose. The conditions noted are these: in vivo. Type of data set: ADME, organism-based.
Data set [13] in a line: Tmax in mouse at 20 mg/kg, IG administered single dose. The data set is classed as ADME, organism-based. The following applies: in vivo, po.
The nature of data set [14]: Half life in mouse at 20 mg/kg, IG administered single dose. The data set is classed as ADME, organism-based. The conditions noted are these: in vivo, po.
Data set [15] in a line: Cmax in mouse at 20 mg/kg, IG administered single dose. The data set is classed as ADME, organism-based. The following applies: in vivo, po.
The nature of data set [16]: AUC (0 to t) in mouse at 20 mg/kg, IG administered single dose. Type of data set: ADME, organism-based. The conditions noted are these: in vivo, po.
A short description of data set [17]: AUC (0 to infinitive) in mouse at 20 mg/kg, IG administered single dose. Type of data set: ADME, organism-based. The conditions noted are these: in vivo, po.
The nature of data set [18]: MRT in mouse at 20 mg/kg, IG administered single dose. The data set is classed as ADME, organism-based. The conditions noted are these: in vivo, po.
Data set [19] is described as follows: Oral bioavailability in mouse at 20 mg/kg, IG administered single dose. Type of data set: ADME, organism-based. The conditions noted are these: in vivo.
A short description of data set [20]: Tmax in mouse at 100 mg/kg, IG administered single dose. The data set is classed as ADME, organism-based. The following applies: in vivo, po.
Data set [21] can be described thus: Half life in mouse at 100 mg/kg, IG administered single dose. The conditions noted are these: in vivo, po. Type of data set: ADME, organism-based.
The nature of data set [22]: Cmax in mouse at 100 mg/kg, IG administered single dose. The data set is classed as ADME, organism-based. The following applies: in vivo, po.
A short description of data set [23]: AUC (0 to t) in mouse at 100 mg/kg, IG administered single dose. The data set is classed as ADME, organism-based. The conditions noted are these: in vivo, po.
The nature of data set [24]: AUC (0 to infinity) in mouse at 100 mg/kg, IG administered single dose. The data set is classed as ADME, organism-based. The conditions noted are these: in vivo, po.
The nature of data set [25]: MRT in mouse at 100 mg/kg, IG administered single dose. The data set is classed as ADME, organism-based. The conditions noted are these: in vivo, po.
Data set [26] can be described thus: Oral bioavailability in mouse at 100 mg/kg, IG administered single dose. Type of data set: ADME, organism-based. The conditions noted are these: in vivo.
Data set [27] relates to Mus musculus. Nature of the data set: Neuroprotective effect against transient middle cerebral artery occlusion (tMCAO) mouse model assessed as infarct volume in TTC-stained brain slices at 0.3 mg/kg, iv administered 3 hrs after reperfusion (reference value: 59 +/- 2.4%). The data set is classed as functional.
Data set [28] concerns Mus musculus. Nature of the data set: Neuroprotective effect against transient middle cerebral artery occlusion (tMCAO) mouse model assessed as infarct volume in TTC-stained brain slices at 1 mg/kg, iv administered 3 hrs after reperfusion (reference value: 59 +/- 2.4%). The data set is classed as functional.

Chain of Transient receptor potential cation channel subfamily M member 2 (O94759 whole entry): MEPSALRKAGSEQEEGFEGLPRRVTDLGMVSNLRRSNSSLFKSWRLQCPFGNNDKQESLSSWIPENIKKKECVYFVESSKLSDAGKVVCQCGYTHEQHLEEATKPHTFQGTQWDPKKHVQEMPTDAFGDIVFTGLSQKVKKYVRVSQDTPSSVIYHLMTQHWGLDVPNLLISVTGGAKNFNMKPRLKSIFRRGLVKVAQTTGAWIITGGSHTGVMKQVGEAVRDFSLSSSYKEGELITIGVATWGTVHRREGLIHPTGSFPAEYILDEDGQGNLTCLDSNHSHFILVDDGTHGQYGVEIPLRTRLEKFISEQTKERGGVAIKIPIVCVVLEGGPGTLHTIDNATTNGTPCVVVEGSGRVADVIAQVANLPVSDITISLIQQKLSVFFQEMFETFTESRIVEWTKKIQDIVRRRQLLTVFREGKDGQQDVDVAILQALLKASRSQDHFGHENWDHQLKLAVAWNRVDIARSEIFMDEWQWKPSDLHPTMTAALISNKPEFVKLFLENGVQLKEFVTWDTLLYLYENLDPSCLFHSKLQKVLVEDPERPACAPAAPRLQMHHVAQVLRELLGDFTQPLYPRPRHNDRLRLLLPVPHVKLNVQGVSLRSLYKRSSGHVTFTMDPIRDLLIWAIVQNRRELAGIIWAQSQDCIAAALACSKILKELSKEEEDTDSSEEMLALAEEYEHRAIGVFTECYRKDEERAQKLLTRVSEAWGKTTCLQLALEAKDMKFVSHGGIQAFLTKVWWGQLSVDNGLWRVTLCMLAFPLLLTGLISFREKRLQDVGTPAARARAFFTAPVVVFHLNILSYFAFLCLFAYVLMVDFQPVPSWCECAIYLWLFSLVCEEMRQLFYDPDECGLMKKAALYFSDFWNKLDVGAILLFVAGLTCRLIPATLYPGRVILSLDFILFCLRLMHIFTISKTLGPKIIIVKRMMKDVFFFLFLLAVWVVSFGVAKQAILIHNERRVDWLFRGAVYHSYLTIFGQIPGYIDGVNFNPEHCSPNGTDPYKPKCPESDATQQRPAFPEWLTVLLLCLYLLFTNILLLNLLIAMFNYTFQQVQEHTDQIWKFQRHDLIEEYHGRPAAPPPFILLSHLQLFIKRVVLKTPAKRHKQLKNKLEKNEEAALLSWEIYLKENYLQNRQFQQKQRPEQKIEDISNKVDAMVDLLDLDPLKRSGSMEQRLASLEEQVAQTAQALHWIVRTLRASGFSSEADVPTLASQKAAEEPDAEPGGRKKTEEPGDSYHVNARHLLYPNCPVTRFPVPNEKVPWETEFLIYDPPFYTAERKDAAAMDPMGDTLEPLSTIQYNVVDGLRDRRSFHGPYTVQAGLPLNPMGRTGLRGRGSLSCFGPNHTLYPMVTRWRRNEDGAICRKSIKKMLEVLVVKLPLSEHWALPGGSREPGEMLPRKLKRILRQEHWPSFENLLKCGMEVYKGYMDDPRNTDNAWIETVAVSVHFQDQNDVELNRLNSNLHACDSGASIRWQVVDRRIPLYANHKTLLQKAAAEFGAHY

With `O=C(c1ccccc1)c1cc(C(=O)N2CCOCC2)cc2cccn12`, the IC50 in [1] came to 2.89 µM.

Take `CC1=NN(c2ccccc2)C(=O)C1` [EDARAVONE]: the Activity in data set [2] is listed as 40.6%; in [3], 3%; in data set [4], 2.8%; in [5], 38.9%.

As for `O=C(c1ccccc1)c1cc(C(=O)N2CCCCC2)cc2cccn12`, the IC50 in data set [1] came to 2.8 µM.

Take `CCN(CC)C(=O)c1cc(C(=O)c2ccccc2)n2cccc2c1`: in data set [1], the IC50 came out at 2.29 µM. Moreover, the Tmax in data set [6] came out at 5.4 min; in data set [13], 0.83 h; in data set [20] it was 1.1 h. Besides, the half-life is 0.86 h in data set [7], 2.62 h in data set [14] and 2.83 h in data set [21]. Further, the Cmax amounted to 260 ng/mL in data set [8], 330 ng/mL in data set [15] and 1520 ng/mL in [22]. For the same compound, the figures for the AUC(0-t) in [9], in [16] and in data set [23] were 220 ng·h/mL, 2200 ng·h/mL and 10600 ng·h/mL, respectively. In [10], this compound came in with an AUC(0-inf) of 220 ng·h/mL. This compound also gave a clearance in [11] of 75.8 mL/min/kg. The MRT in data set [12] stood at 1.24 h; in data set [18], 2.65 h; in [25] it was 3.16 h. Further, the values for the AUC in data set [17] and in [24] were 2410 ng·h/mL and 11740 ng·h/mL, respectively. Besides, the bioavailability was determined as 50% in [19] and 48.2% in data set [26]. Further, the Activity in [2] came out at 30.7%; in [27], 51.5%; in data set [28], 39.4%; in data set [3] it was 2.3%; in [5] it was 23.4%.

For `O=C(c1ccccc1)c1cc(C(=O)N2CCCC2)cc2cccn12`, the IC50 in data set [1] came out at 3.08 µM.

For the origin of these results see ChEMBL document CHEMBL6109145, “Indolizine Derivatives Inhibit TRPM2 and Protect against Ischemic Brain Injury with an Extended Treatment Window” (J Med Chem, 2025).
